Reference: US11192863B2, “Antiviral compounds and methods” (Biotron Limited, priority 2003, dated 2021)
Where “and” joins values, the source holds several entries; their conditions need not be identical. Equal entries are not always repeated. Structures can show the parent of a compound that is named as a salt. Where two headings read alike, the source gives them in different places.

Columns and labels:
[1] = biological target: SARS-CoV E protein (Severe acute respiratory syndrome coronavirus, UniProt P59637); format: cell-based
Sequence of SARS-CoV E protein (P59637 whole entry, looked up): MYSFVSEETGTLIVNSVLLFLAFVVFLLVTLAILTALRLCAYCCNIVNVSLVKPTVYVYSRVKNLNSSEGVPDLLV

[2] = biological target: Vpu protein (Human immunodeficiency virus type 1 group M subtype B, UniProt P05919); settings: halo of growth score between zero and six; XL1-blue E. coli with pPL-Vpu, no adenine, 37° C.
Sequence of Vpu protein (P05919 whole entry): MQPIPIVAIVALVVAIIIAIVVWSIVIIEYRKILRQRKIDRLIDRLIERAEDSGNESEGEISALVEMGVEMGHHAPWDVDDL

[3] = test system: MHV (strain MHV-A59); settings: L929 cells

SMILES | SARS E protein Inhibition (score/# of times tested) [1] | Vpu Inhibition (score/# of times tested) [2] | Percent reduction in Plaque number/# experiments ([3]; 1 uM) | Percent reduction in Plaque number/# experiments ([3]; 10 uM) | Percent reduction in Plaque number/# experiments ([3]; 20 uM) | Toxic (noted in place of plaque reduction) ([3]; 20 uM)
N=C(N)NC(=O)c1ccc2ccccc2c1Br [1-bromo-2-napthoylguanidine] | 0.25/1 score | 0.06/2 score | 27/1% | 27/2% | 31/1% | 
N=C(N)NC(=O)/C=C/c1c(F)cccc1Cl [2-chloro-6-fluorocinnamoylguanidine] | 0.25/1 score |  | 9/1% | 84/2% | 100/1% | 
NC(N)=NC(=O)c1nc(Cl)c(N2CCCCCC2)nc1O [3-hydroxy-5-hexamethyleneimino-amiloride] |  |  | 1/1% | 22/2% | 16/1% | 
NC(N)=NC(=O)c1cnc2ccccc2c1 [3-quinolinoylguanidine] |  |  | 30/1% | 36/2% | 27/1% | 
N=C(N)NC(=O)/C=C/C=C/c1ccccc1Br [5-(2′-bromophenyl)penta-2,4-dienoylguanidine] |  |  | 57/1% | 100/1% |  | Toxic
CCN(c1nc(N)c(C(=O)N=C(N)N)nc1Cl)C(C)C [5-(N-Ethyl-N-isopropyl)amiloride, 5-(N-ethyl-N-isopropyl)amiloride] | 1.07/2 score | 0.6/3 score |  |  |  | 
NC(N)=NC(=O)c1nc(I)c(N)nc1N [6-Iodoamiloride] | 1.75/2 score |  | 0/1% | 21/1% | 28/1% | 
N=C(N)NC(=O)c1ccc2cc(Br)ccc2c1 [6-bromo-2-napthoylguanidine] | 0.25/1 score |  | 19/1% | 43/1% and 37/2% | 65/1% | 
N=C(N)NC(=O)/C=C/c1ccccc1[N+](=O)[O-] [(2-Nitrocinnamoyl)guanidine] |  | 0.4/2 score | 47/1% | 77/2% | 97/1% | 
N=C(N)NC(=O)/C=C/c1ccc([N+](=O)[O-])cc1 [(4-Nitrocinnamoyl)guanidine] |  |  | 40/3% | 75/3% | 97/1% | 
N=C(N)NC(=O)Cc1ccccc1 [(Phenylacetyl)guanidine] | 0.32/3 score |  | 3/1% | 22/1% | 35/1% | 
NC(N)=NC(=O)c1ccc2ccccc2n1 [(Quinoline-2-carbonyl)guanidine] | 0.41/1 score |  | 12/1% | 84/1% | 86/1% | 
Cl.NC(N)=NC(=O)c1nc(Cl)c(N)nc1N [Amiloride•HCl, reference compound] |  |  | −5/1% | 18/1% | 21/1% | 
N=C(N)NC(=O)c1ccccc1 [Benzyoylguanidine, Benzoylguanidine] |  | 0.88/2 score | 14/1% | 39/2% | 22/1% | 
N=C(NC(=O)c1cccc2ccccc12)NC(=O)c1cccc2ccccc12 [N,N′-bis(1-napthoyl)guanidine] |  |  | 35/1% | 52/2% | 58/1% | 
N=C(NC(=O)c1ccc2ccccc2c1)NC(=O)c1ccc2ccccc2c1 [N,N′-bis(2-napthoyl)guanidine] |  |  | 3/1% | 3/2% | 5/1% | 
O=C(/C=C/c1ccccc1)NC(=Nc1ccccc1)NC(=O)/C=C/c1ccccc1 [N,N′-bis-(cinnamoyl)-N″-phenylguanidine] |  | 0.94/2 score | 31/1% | 38/2% | 16/1% | 
N/C(=N/C(=O)c1ccc2ccccc2c1)Nc1ccccc1 [N-(2-napthoyl)-N′-phenylguanidine] | 0.07/2 score |  |  |  |  | 
CN(C)C(=N)NC(=O)/C=C/c1ccccc1 [N-Cinnamoyl-N′,N′-dimethylguanidine] |  |  | 24/2% | 65/3% | 92/2% | 
NC(N)=NC(=O)c1nc(-c2ccccc2)c(N)nc1N [N-amidino-3,5-diamino-6-phenyl-2-pyrazinecarboxamide] |  |  | 25/1% | 39/2% | 53/1% | 
NC(N)=NC(=O)c1nc(-c2ccccc2)c(N2CCCCCC2)nc1N [N-amidino-3-amino-5-hexamethyleneimino-6-phenyl-2-pyrazinecarboxamide] |  | 0.6/2 score | 48/1% | 52/2% | 84/1% | 
NC(N)=NC(=O)c1nc(Cl)c(-c2ccccc2)nc1N [N-amidino-3-amino-5-phenyl-6-chloro-2-pyrazinecarboxamide] |  | 0.5/11 score | 9/1% | 20/2% | 20/1% | 
O=C(/C=C/c1ccccc1)N=C(Nc1ccccc1)Nc1ccccc1 [N″-Cinnamoyl-N,N′-diphenylguanidine] |  |  | 34/1% | 72/2% | 97/1% | 
N/C(=N\C(=O)c1nc(Cl)c(N)nc1N)Nc1ccccc1 [Phenamil methanesulfonate salt, N-(3,5-Diamino-6-chloro-pyrazine-2-carbonyl)-N′-phenylguanidine] | 0.13/2 score | 0.9/5 score |  |  |  | 
N=C(N)NC(=O)/C=C/c1cccnc1 [[3-(3-Pyridyl)acryloyl]guanidine] | 0.67/3 score |  | 21/2% | 73/2% | 81/2% | 
C/C(=C\c1ccc(N(C)C)cc1)C(=O)NC(=N)N [[(E)-3-(4-Dimethylaminophenyl)-2-methylacryloyl]guanidine] |  |  | 37/1% | 45/1% | 56/1% | 
